Measurements reported in paper PMC10272112 (Nature Communications, 2023).
Where “and” joins values, the source holds several entries; their conditions need not be identical. Equal entries are not always repeated. One block for each molecule: values may come before it.

Key:
A549 cells = experiment: CellRox deep red assay for tBuOOH-induced ROS; details: for tBuOOH-induced ROS (CellRox), relative to DMSO, Mean / tBuOOH-induced ROS (CellRox), relative to DMSO, replicate values: sheet 4c, DMSO mean = 1
NCOR2 (Homo sapiens) = experiment: Chemoproteomic competition pulldown assay (co-competed NCoR partner); type: binding; details: iQ, SW620 lysate
Protocol: (§1) To identify proteins directly bound by lipoic acid, we employed a chemoproteomic competition assay. Briefly, (R/S)-LA was immobilized on sepharose beads via an amidation reaction to form an affinity matrix (abbreviated as iL; Fig. 1a). This affinity matrix can be incubated with cell lysate to pull down potential LA or LM target proteins and identify these targets via bottom-up proteomics. In a competition assay, free LA or LM were incubated with lysate at different concentrations before pulling down and quantifying target proteins. […] (Fig. 1b, see “Methods” for details). […] The lysate buffer used in this assay contains 1 mM DTT to mimic the intracellular reductive milieu and to reduce lipoic acid and LM. […] Additional competition assays performed in lung adenocarcinoma cell A549 lysate also identified HDAC1, HDAC2, and HDAC6 as targets (Supplementary Fig. 1b). Amongst the three cell lines tested, HDACs were the only confidently identified targets across the 1500–3000 proteins quantified in these assays. […] We validated the results by analogous pulldown competition assays using two other affinity matrices prepared via the immobilization of either the HDAC inhibitor Quisinostat (iQ) and an analog of the class IIa HDAC inhibitor Bürli’s 31[14] (iC)[12]. We have previously shown that these affinity matrices specifically bind to the active sites of HDACs and have used them for HDACi selectivity profiling. Indeed, binding of (R/S)-LA and (R/S)-LM to HDAC1, HDAC2, HDAC3, HDAC6, and, to a lesser extent, HDAC8 was confirmed in these assays (Supplementary Fig. 1c, d). No binding to class IIa HDACs or the recently discovered common HDAC inhibitor off-target MBLAC2 was observed (Supplementary Fig. 1e)[12]. […] This observation might reflect electrostatic repulsion between the HDAC10 active site gate-keeper glutamic acid residues[15],[16] and the terminal carboxylic acid of LA.
(§2) To assess the degree of protein depletion from lysates by the affinity matrix, a second pulldown (PDPD) with fresh beads was performed using the unbound protein fraction from the vehicle control flow through. The beads were washed (1 × 1 mL of lysis buffer without inhibitors and only 0.4% Igepal, 2 × 2 mL of lysis buffer without inhibitors and only 0.2% Igepal), and captured proteins were denatured with 8 M urea buffer, alkylated with 55 mM chloroacetamide and digested with Trypsin according to standard procedures. The resulting peptides were desalted on a C18 filter plate (Sep-Pak® tC18 µElution Plate, Waters), vacuum dried, and stored at −20 °C until LC–MSMS measurement.
(§3) For the competition assays, relative binding was calculated based on the protein intensity ratio to the DMSO control for every single inhibitor concentration. EC50 values were derived from a four-parameter log-logistic regression with variable slope (constrain: bottom > 0). The obtained EC50 values were multiplied with a protein-dependent correction factor (cf), resulting in the apparent Kd value (Kd^app). The correction factor is determined by calculating the ratio of the protein intensity of two consecutive pulldowns of the vehicle control sample[13]. Targets of the inhibitors were annotated manually according to published procedures[12],[46],[47]. […] Additionally, the number of unique peptides and MSMS counts per condition were taken into account. Positive target binding across several independent experiments performed with different cell lysates further substantiated our confidence for a true positive drug-target binding event.

[1] = cited from earlier work
HDAC3 = molecular target: T1, HDAC3 (Homo sapiens, UniProt O15379); experiment: Chemoproteomic competition pulldown assay; type: binding; details: iL, MV4-11 lysate
T1 construct: endogenous in cells; host or cells: MV4-11 lysate
Protocol: as §1, §2, §3

NCOR1 (Homo sapiens) = experiment: Chemoproteomic competition pulldown assay (co-competed NCoR partner); type: binding; details: iQ, SW620 lysate
Protocol: as §1, §2, §3

ELMSAN1 = experiment: Chemoproteomic competition pulldown assay (co-competed MiDAC partner); type: binding
Protocol: as §1, §2, §3

DNTTIP1 = experiment: as above; type: binding
Protocol: as §1, §2, §3

[2] = iL, MV4-11 lysate, log10 M -3.52288
[3] = iL, MV4-11 lysate, log10 M -4.52288
[4] = iL, MV4-11 lysate, log10 M -5.52288
[5] = iL, MV4-11 lysate, log10 M -6.52288
[6] = iQ, SW620 lysate, log10 M -3.52288
[7] = iQ, SW620 lysate, log10 M -4.52288
[8] = iQ, SW620 lysate, log10 M -5.52288
[9] = iQ, SW620 lysate, log10 M -6.52288

NCOR1 (Homo sapiens), sequence (O15379 whole entry): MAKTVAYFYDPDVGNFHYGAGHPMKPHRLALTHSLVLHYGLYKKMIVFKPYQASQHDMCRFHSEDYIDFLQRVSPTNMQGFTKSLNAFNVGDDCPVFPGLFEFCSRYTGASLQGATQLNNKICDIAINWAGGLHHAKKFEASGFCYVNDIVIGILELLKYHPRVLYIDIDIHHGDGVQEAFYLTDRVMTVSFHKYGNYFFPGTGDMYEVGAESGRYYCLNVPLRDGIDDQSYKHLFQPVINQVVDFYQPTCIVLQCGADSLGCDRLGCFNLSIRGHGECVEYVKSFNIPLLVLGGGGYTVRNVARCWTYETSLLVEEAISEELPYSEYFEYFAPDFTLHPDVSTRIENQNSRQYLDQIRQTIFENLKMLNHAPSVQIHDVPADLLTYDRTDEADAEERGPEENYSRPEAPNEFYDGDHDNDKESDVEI
NCOR1 (Homo sapiens), sequence (O75376 whole entry, further chain): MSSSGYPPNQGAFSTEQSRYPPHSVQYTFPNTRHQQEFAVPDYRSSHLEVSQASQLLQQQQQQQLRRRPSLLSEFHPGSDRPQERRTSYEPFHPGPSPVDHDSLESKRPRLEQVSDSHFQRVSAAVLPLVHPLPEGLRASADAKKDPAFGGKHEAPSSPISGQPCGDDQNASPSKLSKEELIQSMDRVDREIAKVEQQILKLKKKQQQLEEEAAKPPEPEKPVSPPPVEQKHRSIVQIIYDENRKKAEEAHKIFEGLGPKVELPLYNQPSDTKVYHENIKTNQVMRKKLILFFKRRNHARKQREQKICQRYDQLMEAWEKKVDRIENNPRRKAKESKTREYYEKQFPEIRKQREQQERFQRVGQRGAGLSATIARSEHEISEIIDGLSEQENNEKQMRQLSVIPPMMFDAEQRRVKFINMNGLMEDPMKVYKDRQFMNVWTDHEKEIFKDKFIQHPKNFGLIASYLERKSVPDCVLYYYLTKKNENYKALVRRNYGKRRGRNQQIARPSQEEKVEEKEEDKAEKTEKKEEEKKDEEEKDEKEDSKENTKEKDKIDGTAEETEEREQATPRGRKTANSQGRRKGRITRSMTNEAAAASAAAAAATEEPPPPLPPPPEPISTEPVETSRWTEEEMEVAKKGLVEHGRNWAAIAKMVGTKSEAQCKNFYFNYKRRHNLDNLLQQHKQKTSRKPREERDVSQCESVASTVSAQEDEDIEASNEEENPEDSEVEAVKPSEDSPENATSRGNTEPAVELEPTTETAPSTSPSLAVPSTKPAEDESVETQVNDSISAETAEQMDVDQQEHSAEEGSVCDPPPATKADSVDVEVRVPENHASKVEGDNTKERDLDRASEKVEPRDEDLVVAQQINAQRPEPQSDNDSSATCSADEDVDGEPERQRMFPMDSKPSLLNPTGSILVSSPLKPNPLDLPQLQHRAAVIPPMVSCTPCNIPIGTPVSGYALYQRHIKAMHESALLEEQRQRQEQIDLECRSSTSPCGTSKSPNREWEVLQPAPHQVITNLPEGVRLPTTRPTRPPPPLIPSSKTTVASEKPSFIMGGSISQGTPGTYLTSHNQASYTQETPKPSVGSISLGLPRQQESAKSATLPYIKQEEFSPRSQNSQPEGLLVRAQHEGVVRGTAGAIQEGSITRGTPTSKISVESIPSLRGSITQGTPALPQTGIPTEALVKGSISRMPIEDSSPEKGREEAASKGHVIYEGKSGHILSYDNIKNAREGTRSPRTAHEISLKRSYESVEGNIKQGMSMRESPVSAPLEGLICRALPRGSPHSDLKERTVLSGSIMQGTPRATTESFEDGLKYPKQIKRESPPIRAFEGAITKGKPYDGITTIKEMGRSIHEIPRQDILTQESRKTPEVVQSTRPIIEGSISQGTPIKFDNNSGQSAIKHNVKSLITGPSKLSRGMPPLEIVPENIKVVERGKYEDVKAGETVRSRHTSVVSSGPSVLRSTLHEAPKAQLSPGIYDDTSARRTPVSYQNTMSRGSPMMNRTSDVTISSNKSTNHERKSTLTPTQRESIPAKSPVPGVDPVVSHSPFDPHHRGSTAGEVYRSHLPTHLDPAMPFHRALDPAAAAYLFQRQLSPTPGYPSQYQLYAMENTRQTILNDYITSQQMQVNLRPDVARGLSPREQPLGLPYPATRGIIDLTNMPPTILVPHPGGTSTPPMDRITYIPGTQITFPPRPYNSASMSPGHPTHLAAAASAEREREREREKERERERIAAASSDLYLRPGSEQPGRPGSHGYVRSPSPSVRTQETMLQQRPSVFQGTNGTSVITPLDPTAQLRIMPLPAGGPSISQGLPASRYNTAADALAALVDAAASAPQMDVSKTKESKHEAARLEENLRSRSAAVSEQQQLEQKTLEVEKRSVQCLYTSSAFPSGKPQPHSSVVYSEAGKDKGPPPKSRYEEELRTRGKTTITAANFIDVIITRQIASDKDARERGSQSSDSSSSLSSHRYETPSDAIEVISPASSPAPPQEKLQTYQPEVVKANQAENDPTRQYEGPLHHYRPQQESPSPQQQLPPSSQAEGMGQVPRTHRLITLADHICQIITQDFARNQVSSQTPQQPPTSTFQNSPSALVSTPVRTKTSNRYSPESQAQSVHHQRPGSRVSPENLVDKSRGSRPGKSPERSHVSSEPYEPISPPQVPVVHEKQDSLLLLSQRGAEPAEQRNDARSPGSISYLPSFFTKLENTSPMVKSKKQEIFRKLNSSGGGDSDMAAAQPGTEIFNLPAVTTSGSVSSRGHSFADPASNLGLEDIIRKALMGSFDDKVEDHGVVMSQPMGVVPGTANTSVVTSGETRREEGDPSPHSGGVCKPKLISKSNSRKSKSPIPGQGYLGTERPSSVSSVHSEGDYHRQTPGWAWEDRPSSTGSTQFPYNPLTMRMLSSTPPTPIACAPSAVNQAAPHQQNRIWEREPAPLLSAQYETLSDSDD
T1 sequence (O15379 whole entry): as the sequence (O15379 whole entry) above
T1 sequence (O75376 whole entry partner): as the sequence (O75376 whole entry, further chain) above

Structure (SMILES): O=C(O)CCCCC1CCSS1 (racemic) [(R/S)-LA, (R/S)-lipoic acid]
levels of ROS (oxidative stress) relative to control (A549 cells; 100 µM drug pre-treatment, 2 h 200 µM tBuOOH): 60–70% | tBuOOH-induced ROS (CellRox), relative to DMSO, Mean (A549 cells; (R/S)-LA 10 ?M): 0.7284 | tBuOOH-induced ROS (CellRox), relative to DMSO, replicate values (A549 cells; (R/S)-LA 10 ?M): 0.6361 and 0.7994 and 0.7496 | tBuOOH-induced ROS (CellRox), relative to DMSO, Mean (A549 cells; (R/S)-LA 30 ?M): 0.7039 | tBuOOH-induced ROS (CellRox), relative to DMSO, replicate values (A549 cells; (R/S)-LA 30 ?M): 0.5919 and 0.6862 and 0.8337 | tBuOOH-induced ROS (CellRox), relative to DMSO, Mean (A549 cells; (R/S)-LA 100 ?M): 0.6085 | tBuOOH-induced ROS (CellRox), relative to DMSO, replicate values (A549 cells; (R/S)-LA 100 ?M): 0.608 and 0.6603 and 0.5572 | tBuOOH-induced ROS (CellRox), relative to DMSO, Mean (A549 cells; (R/S)-LA 300 ?M): 0.7233 | tBuOOH-induced ROS (CellRox), relative to DMSO, replicate values (A549 cells; (R/S)-LA 300 ?M): 0.909 and 0.609 and 0.652 | relative binding vs DMSO (NCOR2 (Homo sapiens); log10 M -3.52288): 0 | relative binding vs DMSO (NCOR2 (Homo sapiens); log10 M -4): 0 | relative binding vs DMSO (NCOR2 (Homo sapiens); log10 M -4.52288): 0.568 | relative binding vs DMSO (NCOR2 (Homo sapiens); log10 M -5): 0.5133 | relative binding vs DMSO (NCOR2 (Homo sapiens); log10 M -5.52288): 0.9883 | relative binding vs DMSO (NCOR2 (Homo sapiens); log10 M -6): 0.9231 | relative binding vs DMSO (NCOR2 (Homo sapiens); log10 M -6.52288): 1.028 | relative binding vs DMSO (NCOR2 (Homo sapiens); log10 M -7): 1.032 | peak plasma concentrations ([1]; clinically relevant doses 600 to 2400 mg/day, orally and intravenously): 100 to 500 µM | peak plasma concentration ([1]; in humans): about 0.5 mM

relative binding vs DMSO (HDAC3; log10 M -3.52288): 0.06787 | relative binding vs DMSO (HDAC3; log10 M -4): 0.1873 | relative binding vs DMSO (HDAC3; log10 M -4.52288): 0.229 | relative binding vs DMSO (HDAC3; log10 M -5): 0.6794 | relative binding vs DMSO (HDAC3; log10 M -5.52288): 1.111 | relative binding vs DMSO (HDAC3; log10 M -6): 0.7918 | relative binding vs DMSO (HDAC3; log10 M -6.52288): 1.34 | relative binding vs DMSO (HDAC3; log10 M -7): 0.7531 | Kd (HDAC3; read-out: Kd app): 13 µM | relative binding vs DMSO (NCOR1 (Homo sapiens); log10 M -3.52288): 0.2142 | relative binding vs DMSO (NCOR1 (Homo sapiens); log10 M -4): 0.3668 | relative binding vs DMSO (NCOR1 (Homo sapiens); log10 M -4.52288): 0.5065 | relative binding vs DMSO (NCOR1 (Homo sapiens); log10 M -5): 0.4972 | relative binding vs DMSO (NCOR1 (Homo sapiens); log10 M -5.52288): 0.5554 | relative binding vs DMSO (NCOR1 (Homo sapiens); log10 M -6): 0.6839 | relative binding vs DMSO (NCOR1 (Homo sapiens); log10 M -6.52288): 0.8502 | relative binding vs DMSO (NCOR1 (Homo sapiens); log10 M -7): 0.9007 | relative binding vs DMSO (ELMSAN1; [2]): 0.05487 | relative binding vs DMSO (ELMSAN1; iL, MV4-11 lysate, log10 M -4): 0.06564 | relative binding vs DMSO (ELMSAN1; [3]): 0.1508 | relative binding vs DMSO (ELMSAN1; iL, MV4-11 lysate, log10 M -5): 0.5058 | relative binding vs DMSO (ELMSAN1; [4]): 0.6836 | relative binding vs DMSO (ELMSAN1; iL, MV4-11 lysate, log10 M -6): 0.7193 | relative binding vs DMSO (ELMSAN1; [5]): 0.7931 | relative binding vs DMSO (ELMSAN1; iL, MV4-11 lysate, log10 M -7): 0.9008 | relative binding vs DMSO (ELMSAN1; [6]): 0 | relative binding vs DMSO (ELMSAN1; iQ, SW620 lysate, log10 M -4): 0 | relative binding vs DMSO (ELMSAN1; [7]): 0.1474 | relative binding vs DMSO (ELMSAN1; iQ, SW620 lysate, log10 M -5): 0.6579 | relative binding vs DMSO (ELMSAN1; [8]): 0.8569 | relative binding vs DMSO (ELMSAN1; iQ, SW620 lysate, log10 M -6): 0.8861 | relative binding vs DMSO (ELMSAN1; [9]): 0.626 | relative binding vs DMSO (ELMSAN1; iQ, SW620 lysate, log10 M -7): 0.8038 | relative binding vs DMSO (DNTTIP1; [2]): 0.05556 | relative binding vs DMSO (DNTTIP1; iL, MV4-11 lysate, log10 M -4): 0.04853 | relative binding vs DMSO (DNTTIP1; [3]): 0.1384 | relative binding vs DMSO (DNTTIP1; iL, MV4-11 lysate, log10 M -5): 0.4584 | relative binding vs DMSO (DNTTIP1; [4]): 0.6943 | relative binding vs DMSO (DNTTIP1; iL, MV4-11 lysate, log10 M -6): 0.6679 | relative binding vs DMSO (DNTTIP1; [5]): 0.7085 | relative binding vs DMSO (DNTTIP1; iL, MV4-11 lysate, log10 M -7): 0.9632 | relative binding vs DMSO (DNTTIP1; [6]): 0.382 | relative binding vs DMSO (DNTTIP1; iQ, SW620 lysate, log10 M -4): 0.3895 | relative binding vs DMSO (DNTTIP1; [7]): 0.5292 | relative binding vs DMSO (DNTTIP1; iQ, SW620 lysate, log10 M -5): 0.6889 | relative binding vs DMSO (DNTTIP1; [8]): 0.738 | relative binding vs DMSO (DNTTIP1; iQ, SW620 lysate, log10 M -6): 0.858 | relative binding vs DMSO (DNTTIP1; [9]): 0.8975 | relative binding vs DMSO (DNTTIP1; iQ, SW620 lysate, log10 M -7): 0.8297
Structure (SMILES): NC(=O)CCCCC1CCSS1 (racemic) [(R/S)-LM, (R/S)-lipoamide]
